Data from patent publication US20260285850A1, “SUBSTITUTED OXAZOLIDINONES AND IMIDAZOLINONES AS HERBICIDES” (FMC CORPORATION, priority 2023, published 2026).

Legend:
Format in all cases: in vivo
[1] = test system: barnyardgrass (Echinochloa crus-galli); experiment: Test A preemergence soil spray, visual injury rating 0-100; conditions: 10 days; for Barnyardgrass plant response rating: 31 g ai/ha, 0 to 100 scale; for Barnyardgrass plant response rating (0 to 100 scale): 125 g ai/ha, 0 = no effect, 100 = complete control
From the text: (§1) Seeds of plant species selected from barnyardgrass (Echinochloa crus-galli), blackgrass (Alopecurus myosuroides), corn (Zea mays), foxtail, giant (giant foxtail, Setaria faberi), green foxtail (Setaria viridis), goosegrass (Eleusine indica), kochia (Bassia scoparia), oat, wild (wild oat, Avena fatua), palmer (palmer amaranth, palmer pigweed, Amaranthus palmeri), ragweed (common ragweed, Ambrosia artemisiifolia), ryegrass, Italian (italian ryegrass, Lolium multiflorum), soybean (Glycine max) and wheat (Triticum aestivum) were planted into a blend of loam soil and sand and treated preemergence with a directed soil spray using test chemicals formulated in a non-phytotoxic solvent mixture which included a surfactant.
(§2) At the same time, plants selected from these crops and weed species and also galium (catchweed bedstraw, Galium aparine) and horseweed (Erigeron canadensis) were planted in pots containing the same blend of loam soil and sand and treated with postemergence applications of test chemicals formulated in the same manner. Plants ranged in height from 2 to 10 cm and were in the one- to two-leaf stage for the postemergence treatment. Treated plants and untreated controls were maintained in a greenhouse for 10 days, after which time all treated plants were compared to untreated controls and visually evaluated for injury. Plant response ratings, summarized in Table A, are based on a 0 to 100 scale where 0 is no effect and 100 is complete control. A dash (-) response means no test result.

[2] = test system: blackgrass (Alopecurus myosuroides); experiment: as above; conditions: 10 days; for Blackgrass plant response rating: 31 g ai/ha, 0 to 100 scale; for Blackgrass plant response rating (0 to 100 scale): 125 g ai/ha, 0 = no effect, 100 = complete control
From the text: as §1, §2

[3] = test system: corn (Zea mays); experiment: as above; conditions: 10 days; for Corn plant response rating: 31 g ai/ha, 0 to 100 scale; for Corn plant response rating (0 to 100 scale): 125 g ai/ha, 0 = no effect, 100 = complete control
From the text: as §1, §2

[4] = test system: soybean (Glycine max); experiment: as above; conditions: 10 days; for Soybean plant response rating: 31 g ai/ha, 0 to 100 scale; for Soybean plant response rating (0 to 100 scale): 125 g ai/ha, 0 = no effect, 100 = complete control
From the text: as §1, §2

[5] = test system: palmer (palmer amaranth, palmer pigweed, Amaranthus palmeri); experiment: as above; conditions: 10 days; for Amaranth, Palmer (Pigweed, Palmer) plant response rating: 31 g ai/ha, 0 to 100 scale; for Amaranth, Palmer plant response rating (0 to 100 scale): 125 g ai/ha, 0 = no effect, 100 = complete control
From the text: as §1, §2

[6] = test system: ragweed (common ragweed, Ambrosia artemisiifolia); experiment: as above; conditions: 10 days; for Ragweed plant response rating: 31 g ai/ha, 0 to 100 scale; for Ragweed plant response rating (0 to 100 scale): 125 g ai/ha, 0 = no effect, 100 = complete control
From the text: as §1, §2

[7] = test system: oat, wild (wild oat, Avena fatua); experiment: as above; conditions: 10 days; for Oat, Wild plant response rating: 31 g ai/ha, 0 to 100 scale; for Oat, Wild plant response rating (0 to 100 scale): 125 g ai/ha, 0 = no effect, 100 = complete control
From the text: as §1, §2

[8] = test system: wheat (Triticum aestivum); experiment: as above; conditions: 10 days; for Wheat plant response rating: 31 g ai/ha, 0 to 100 scale; for Wheat plant response rating (0 to 100 scale): 125 g ai/ha, 0 = no effect, 100 = complete control
From the text: as §1, §2

[9] = test system: ryegrass, Italian (italian ryegrass, Lolium multiflorum); experiment: as above; conditions: 10 days; for Ryegrass, Italian plant response rating: 31 g ai/ha, 0 to 100 scale; for Ryegrass, Italian plant response rating (0 to 100 scale): 125 g ai/ha, 0 = no effect, 100 = complete control
From the text: as §1, §2

[10] = test system: kochia (Bassia scoparia); experiment: as above; conditions: 10 days; for Kochia plant response rating: 31 g ai/ha, 0 to 100 scale; for Kochia plant response rating (0 to 100 scale): 125 g ai/ha, 0 = no effect, 100 = complete control
From the text: as §1, §2

[11] = test system: barnyardgrass (Echinochloa crus-galli); experiment: Test A postemergence application, visual injury rating 0-100; conditions: Postemergence
From the text: as §1, §2

[12] = test system: blackgrass (Alopecurus myosuroides); experiment: as above; conditions: Postemergence
From the text: as §1, §2

[13] = test system: corn (Zea mays); experiment: as above; conditions: Postemergence
From the text: as §1, §2

[14] = test system: galium (catchweed bedstraw, Galium aparine); experiment: as above; conditions: Postemergence
From the text: as §1, §2

[15] = test system: soybean (Glycine max); experiment: as above; conditions: Postemergence
From the text: as §1, §2

[16] = test system: horseweed (Erigeron canadensis); experiment: as above; conditions: Postemergence
From the text: as §1, §2

[17] = test system: palmer (palmer amaranth, palmer pigweed, Amaranthus palmeri); experiment: as above; conditions: Postemergence
From the text: as §1, §2

[18] = test system: ragweed (common ragweed, Ambrosia artemisiifolia); experiment: as above; conditions: Postemergence
From the text: as §1, §2

[19] = test system: oat, wild (wild oat, Avena fatua); experiment: as above; conditions: Postemergence
From the text: as §1, §2

[20] = test system: wheat (Triticum aestivum); experiment: as above; conditions: Postemergence
From the text: as §1, §2

[21] = test system: ryegrass, Italian (italian ryegrass, Lolium multiflorum); experiment: as above; conditions: Postemergence
From the text: as §1, §2

[22] = test system: kochia (Bassia scoparia); experiment: as above; conditions: Postemergence
From the text: as §1, §2

[23] = 31 g ai/ha, greenhouse 10 days, 0 no effect, 100 complete control
[24] = 125 g ai/ha, 10 days, 0 is no effect, 100 is complete control

SMILES: CCS(=O)(=O)NC(=O)C1C=CC(NC(=O)C2(C)CN(c3cc(Cl)cc(Cl)c3)C(=O)O2)C1 (centres unmarked) [Compound 83]
- Barnyardgrass plant response rating [1]: 30
- Barnyardgrass plant response rating (0 to 100 scale) [1]: 70
- Blackgrass plant response rating [2]: 0
- Blackgrass plant response rating (0 to 100 scale) [2]: 40
- Corn plant response rating [3]: 0
- Corn plant response rating (0 to 100 scale) [3]: 60
- Soybean plant response rating [4]: 40
- Soybean plant response rating (0 to 100 scale) [4]: 10
- Amaranth, Palmer (Pigweed, Palmer) plant response rating [5]: 70
- Amaranth, Palmer plant response rating (0 to 100 scale) [5]: 100
- Ragweed plant response rating [6]: 0
- Ragweed plant response rating (0 to 100 scale) [6]: 20
- Oat, Wild plant response rating [7]: 0
- Oat, Wild plant response rating (0 to 100 scale) [7]: 60
- Wheat plant response rating [8]: 0
- Wheat plant response rating (0 to 100 scale) [8]: 60
- Ryegrass, Italian plant response rating [9]: 60
- Ryegrass, Italian plant response rating (0 to 100 scale) [9]: 80
- Kochia plant response rating [10]: 0
- Kochia plant response rating (0 to 100 scale) [10]: 90
- Barnyardgrass plant response rating (0 to 100 scale) [11, 23]: 90
- Barnyardgrass plant response rating (0 to 100 scale) [11, 24]: 90
- Blackgrass plant response rating (0 to 100 scale) [12, 23]: 60
- Blackgrass plant response rating (0 to 100 scale) [12, 24]: 90
- Corn plant response rating (0 to 100 scale) [13, 23]: 20
- Corn plant response rating (0 to 100 scale) [13, 24]: 90
- Galium plant response rating (0 to 100 scale) [14, 23]: 80
- Galium plant response rating (0 to 100 scale) [14, 24]: 80
- Soybean plant response rating (0 to 100 scale) [15, 23]: 20
- Soybean plant response rating (0 to 100 scale) [15, 24]: 60
- Horseweed plant response rating (0 to 100 scale) [16, 23]: 20
- Horseweed plant response rating (0 to 100 scale) [16, 24]: 70
- Amaranth, Palmer / Pigweed, Palmer plant response rating (0 to 100 scale) [17, 23]: 80
- Amaranth, Palmer / Pigweed, Palmer plant response rating (0 to 100 scale) [17, 24]: 90
- Ragweed plant response rating (0 to 100 scale) [18, 23]: 60
- Ragweed plant response rating (0 to 100 scale) [18, 24]: 80
- Oat, Wild plant response rating (0 to 100 scale) [19, 23]: 80
- Oat, Wild plant response rating (0 to 100 scale) [19, 24]: 90
- Wheat plant response rating (0 to 100 scale) [20, 23]: 90
- Wheat plant response rating (0 to 100 scale) [20, 24]: 90
- Ryegrass, Italian plant response rating (0 to 100 scale) [21, 23]: 60
- Ryegrass, Italian plant response rating (0 to 100 scale) [21, 24]: 70
- Kochia plant response rating (0 to 100 scale) [22, 23]: 70
- Kochia plant response rating (0 to 100 scale) [22, 24]: 70

SMILES: CC1(C(=O)NC2C=CC(C(=O)NS(=O)(=O)C3CC3)C2)CN(c2cc(Cl)cc(Cl)c2)C(=O)O1 (centres unmarked) [Compound 85]
- Barnyardgrass plant response rating [1]: 20
- Barnyardgrass plant response rating (0 to 100 scale) [1]: 90
- Blackgrass plant response rating [2]: 0
- Blackgrass plant response rating (0 to 100 scale) [2]: 20
- Corn plant response rating [3]: 0
- Corn plant response rating (0 to 100 scale) [3]: 30
- Soybean plant response rating [4]: 0
- Soybean plant response rating (0 to 100 scale) [4]: 10
- Amaranth, Palmer (Pigweed, Palmer) plant response rating [5]: 80
- Amaranth, Palmer plant response rating (0 to 100 scale) [5]: 90
- Ragweed plant response rating [6]: 30
- Ragweed plant response rating (0 to 100 scale) [6]: 20
- Oat, Wild plant response rating [7]: 20
- Oat, Wild plant response rating (0 to 100 scale) [7]: 50
- Wheat plant response rating [8]: 0
- Wheat plant response rating (0 to 100 scale) [8]: 90
- Ryegrass, Italian plant response rating [9]: 60
- Ryegrass, Italian plant response rating (0 to 100 scale) [9]: 80
- Kochia plant response rating [10]: 20
- Kochia plant response rating (0 to 100 scale) [10]: 90
- Barnyardgrass plant response rating (0 to 100 scale) [11, 23]: 90
- Barnyardgrass plant response rating (0 to 100 scale) [11, 24]: 90
- Blackgrass plant response rating (0 to 100 scale) [12, 23]: 60
- Blackgrass plant response rating (0 to 100 scale) [12, 24]: 80
- Corn plant response rating (0 to 100 scale) [13, 23]: 20
- Corn plant response rating (0 to 100 scale) [13, 24]: 90
- Galium plant response rating (0 to 100 scale) [14, 23]: 50
- Galium plant response rating (0 to 100 scale) [14, 24]: 80
- Soybean plant response rating (0 to 100 scale) [15, 23]: 40
- Soybean plant response rating (0 to 100 scale) [15, 24]: 60
- Horseweed plant response rating (0 to 100 scale) [16, 23]: 60
- Horseweed plant response rating (0 to 100 scale) [16, 24]: 60
- Amaranth, Palmer / Pigweed, Palmer plant response rating (0 to 100 scale) [17, 23]: 40
- Amaranth, Palmer / Pigweed, Palmer plant response rating (0 to 100 scale) [17, 24]: 90
- Ragweed plant response rating (0 to 100 scale) [18, 23]: 30
- Ragweed plant response rating (0 to 100 scale) [18, 24]: 60
- Oat, Wild plant response rating (0 to 100 scale) [19, 23]: 80
- Oat, Wild plant response rating (0 to 100 scale) [19, 24]: 90
- Wheat plant response rating (0 to 100 scale) [20, 23]: 80
- Wheat plant response rating (0 to 100 scale) [20, 24]: 90
- Ryegrass, Italian plant response rating (0 to 100 scale) [21, 23]: 60
- Ryegrass, Italian plant response rating (0 to 100 scale) [21, 24]: 70
- Kochia plant response rating (0 to 100 scale) [22, 23]: 50
- Kochia plant response rating (0 to 100 scale) [22, 24]: 70

SMILES: CC1(C(=O)NC2C=CC(C(=O)NS(=O)(=O)c3ccccc3)C2)CN(c2cc(Cl)cc(Cl)c2)C(=O)O1 (centres unmarked) [Compound 86]
- Barnyardgrass plant response rating [1]: 30
- Blackgrass plant response rating [2]: 0
- Corn plant response rating [3]: 0
- Soybean plant response rating [4]: 0
- Amaranth, Palmer (Pigweed, Palmer) plant response rating [5]: 70
- Ragweed plant response rating [6]: 10
- Oat, Wild plant response rating [7]: 0
- Wheat plant response rating [8]: 0
- Ryegrass, Italian plant response rating [9]: 0
- Kochia plant response rating [10]: 40
- Barnyardgrass plant response rating (0 to 100 scale) [11, 23]: 90
- Barnyardgrass plant response rating (0 to 100 scale) [11, 24]: 90
- Blackgrass plant response rating (0 to 100 scale) [12, 23]: 30
- Blackgrass plant response rating (0 to 100 scale) [12, 24]: 70
- Corn plant response rating (0 to 100 scale) [13, 23]: 90
- Corn plant response rating (0 to 100 scale) [13, 24]: 100
- Galium plant response rating (0 to 100 scale) [14, 23]: 70
- Galium plant response rating (0 to 100 scale) [14, 24]: 80
- Soybean plant response rating (0 to 100 scale) [15, 23]: 20
- Soybean plant response rating (0 to 100 scale) [15, 24]: 60
- Horseweed plant response rating (0 to 100 scale) [16, 23]: 40
- Horseweed plant response rating (0 to 100 scale) [16, 24]: 50
- Amaranth, Palmer / Pigweed, Palmer plant response rating (0 to 100 scale) [17, 23]: 90
- Amaranth, Palmer / Pigweed, Palmer plant response rating (0 to 100 scale) [17, 24]: 90
- Ragweed plant response rating (0 to 100 scale) [18, 23]: 60
- Ragweed plant response rating (0 to 100 scale) [18, 24]: 80
- Oat, Wild plant response rating (0 to 100 scale) [19, 23]: 60
- Oat, Wild plant response rating (0 to 100 scale) [19, 24]: 90
- Wheat plant response rating (0 to 100 scale) [20, 23]: 60
- Wheat plant response rating (0 to 100 scale) [20, 24]: 80
- Ryegrass, Italian plant response rating (0 to 100 scale) [21, 23]: 60
- Ryegrass, Italian plant response rating (0 to 100 scale) [21, 24]: 70
- Kochia plant response rating (0 to 100 scale) [22, 23]: 80
- Kochia plant response rating (0 to 100 scale) [22, 24]: 90
